According to patent US20040048821A1, “Enhancement of drug cytotoxicity in tumor cells containing mutant Rb gene” (Cold Spring Harbor Laboratory, priority 1997, published 2004):

How the values were obtained:
Format in all cases: cell-based, human
[1] = system: U2OS osteosarcoma cells; assay: Drug cytotoxicity (adriamycin, TNF) in U2OS osteosarcoma cells; settings: U2OS cells with control vector, doses tested
Method: (§1) A control vector, E1A or the E1A mutants (ΔN or ΔCR2) were introduced into tumor cells via retroviral mediated gene transfer and analyzed for drug cytoxicity within a few days of gene transfer. Cell populations were treated with adriamycin or tumor necrosis factor a (or both).

[2] = system: BT-549 breast carcinoma cells; assay: Drug cytotoxicity (adriamycin) in BT-549 breast carcinoma cells; settings: BT549 cells containing a control vector
Method: as §1

[3] = system: Snos2 osteosarcoma cells; assay: Drug cytotoxicity (adriamycin, TNF) in Snos2 osteosarcoma cells; settings: Snos2 cells with control vector, doses tested
Method: as §1

## COc1cccc2c1C(=O)c1c(O)c3c(c(O)c1C2=O)C[C@@](O)(C(=O)CO)C[C@@H]3O[C@H]1C[C@H](N)[C@H](O)[C@H](C)O1 [adriamycin]
[1]
  apoptosis / cell death following drug treatment: do not undergo apoptosis
[2]
  apoptosis following drug treatment: unable to induce apoptosis
[3]
  apoptosis following drug treatment: do not undergo apoptosis
